Laboratory results: US20120191039A1, “CARRIER LINKED PRAMIPEXOLE PRODRUGS” (ASCENDIS PHARMA A/S, priority 2009, published 2012)
Like-named read-outs stand apart in the source and are kept apart here.

What was measured:
[1] = Release kinetics in vitro: hydrolysis in buffer at pH 7.4 and 37° C.; type: physicochemical; conditions: sodium phosphate buffer; half time of release, 60 mM sodium phosphate, 3 mM EDTA, 0.01% Tween20, pH 7.4, 37° C.; read-out: t1/2 buffer A (pH 7.4) (converted)
Experimental: In vitro release sample was vortexed and centrifuged. An aliquot was taken from the supernatant, diluted with eluent (20 mM phosphate buffer pH 7.4, 150 mM NaCl) and assayed for pramipexole content by SEC as described above.
Release of drug molecule was effected by hydrolysis in buffer at pH 7.4 and 37° C.
9a, 9b, 9c, 9d, 9e, 11b, 20, 21, 22b, 23, 24b, 33, and 35 respectively, were dissolved in buffer (60 mM sodium phosphate, 3 mM EDTA, 0.01% Tween20, pH 7.4), solution was filtered through a 0.2 μm filter and incubated at 37° C. Samples were taken at time intervals and analyzed by RP-HPLC at 263 nm and 280 nm and ESI-MS. UV-signals correlating to linker conjugate molecules were integrated and plotted against incubation time. Curve-fitting software was applied to estimate the corresponding half time of release
16a, 16b, 26, 30, and 31 respectively, were suspended in buffer (60 mM sodium phosphate, 3 mM EDTA, 0.01% Tween20, pH 7.4) and incubated at 37° C. At time intervals samples were vortexed and centrifuged. Aliquots (10-50 μL) were taken from the supernatant solution, and analyzed by measurement of the absorption of released drug at 263 nm. Calculated amounts of released drug were plotted against incubation time. Alternatively, amount of released pramipexole was determined by size exclusion chromatography as described in “Materials and Methods”.
Curve-fitting software was applied to estimate the corresponding half time of release.

[2] = cited from earlier work

SMILES: CCCN[C@H]1CCc2nc(NC(=O)CCC(=O)NCCSC3CC(=O)N(CCC(=O)NCCOCCOCCOCCOCCOCCOCCC(=O)NCC(N)=O)C3=O)sc2C1 (some centres unmarked) [Compound 9a]
- half-life [1]: 28.8 h

SMILES: CCCN[C@H]1CCc2nc(NC(=O)CCC(=O)NCCCCCCSC3CC(=O)N(CCC(=O)NCCOCCOCCOCCOCCOCCOCCC(=O)NCC(N)=O)C3=O)sc2C1 (some centres unmarked) [Compound 9b]
- half-life [1]: 88.8 h

SMILES: CCCN[C@H]1CCc2nc(NC(=O)COCC(=O)NCCCCCCSC3CC(=O)N(CCC(=O)NCCOCCOCCOCCOCCOCCOCCC(=O)NCC(N)=O)C3=O)sc2C1 (some centres unmarked) [Compound 9c]
- half-life [1]: 31.2 h

SMILES: CCCN[C@H]1CCc2nc(NC(=O)CNCC(=O)NCCCCCCSC3CC(=O)N(CCC(=O)NCCOCCOCCOCCOCCOCCOCCC(=O)NCC(N)=O)C3=O)sc2C1 (some centres unmarked) [Compound 9d]
- half-life [1]: 26.4 h

SMILES: CCCN[C@H]1CCc2nc(NC(=O)CNC(=O)NCCCCCCSC3CC(=O)N(CCC(=O)NCCOCCOCCOCCOCCOCCOCCC(=O)NCC(N)=O)C3=O)sc2C1 (some centres unmarked) [Compound 9e]
- half-life [1]: 103 h

SMILES: CCCN[C@H]1CCc2nc(N)sc2C1 [Pramipexole]
- elimination half life ([2]; healthy subjects): 8 h
- excretion ([2]; in vivo): mainly renal
- metabolism ([2]; in vivo): negligible metabolism
- protein bound ([2]; in vivo): Fifteen
- volume of distribution ([2]; in vivo): 7 L/kg
- absorption ([2]; oral administration): rapidly and completely absorbed
- time to maximum plasma concentration ([2]; oral, empty stomach): 1 to 2 h
- time to maximum plasma concentration ([2]; oral, with food): 3 to 4 h
- Oral bioavailability ([2]; oral): over 90%
